Data published in publication PMC10895678 (Journal of Medicinal Chemistry, 2024).
Converted amounts (≈) assume the structure as drawn.

Columns and labels:
[1] = system: MDR-M. tb 08/00483E; assay: microbe, parasite or virus in culture; type: cell-based, Mycobacterium tuberculosis; settings: for MIC99: Mycobacterium tuberculosis, read-out: MDR-M. tb 08/00483E MIC99
[2] = system: M. smegmatis and M. bovis BCG

| SMILES | MIC99 [1] | resistant colonies formed [2] | fold lower MIC in MDR isolate 08/00483E in comparison to the drug-sensitive isolate [1] |
| --- | --- | --- | --- |
| FC(F)(F)Oc1ccc(C2CC(CN3CCCC3)N2Cc2ccccc2OC(F)(F)F)cc1 (centres unmarked) [BGAz-002] | 33.5 µM (≈ 15.9 µg/mL) | three resistant colonies | – |
| Brc1cc(Br)cc(C2CC(CN3CCCC3)N2Cc2ccccc2Br)c1 (centres unmarked) [BGAz-004] | 15.6 µM (≈ 8.47 µg/mL) | – | – |
| CNCC1CC(c2ccc(OC(F)(F)F)cc2)N1Cc1ccccc1OC(F)(F)F (centres unmarked) [BGAz-005] | 2.8 µM (≈ 1.22 µg/mL) | – | 8 fold |
